Test results reported in patent US20230055321A1, “PYRIMIDOPYRROLE SPIRO COMPOUNDS AND DERIVATIVES THEREOF AS DNA-PK INHIBITORS” (MEDSHINE DISCOVERY INC., priority 2019, published 2023).
pIC50: −log10 of the molar value. Read-outs that look alike come from different tables or passages of the source. Values belong to the compound of their own block, whether it stands above or below them.

Assays:
Human-derived DNA-PK = Human-derived DNA-PK (Homo sapiens, UniProt P78527); test: DNA-dependent protein kinase (DNA-PK) inhibitory activity screening experiment (Eurofins, HTRF); assay type: biochemical; details: 50 nM GST-cMyc-p53, 30 minutes at room temperature
Procedure: Experimental Method (Eurofins Pharma Discovery Service) DNA-PK (h) was incubated in assay buffer containing 50 nM GST-cMyc-p53 and Mg/ATP (according to the required concentration). The reaction was initiated by adding Mg/ATP mixture. After 30 minutes of incubation at room temperature, the reaction was stopped by the addition of stop solution containing EDTA. Finally, detection buffer (containing labeled anti-GST monoclonal antibody and europium-labeled anti-Ser15 antibody against phosphorylated p53) was added.

[1] = Pharmacokinetic evaluation in mice, plasma, IV and PO; assay type: in vivo; details: Balb/c male mice; for Tlast / AUC(0-t) / C0 / clearance / half-life / Vd / Cmax / Tmax / AUC0-last / T1/2: plasma; for F: PO (2 mg/kg) vs IV (0.4 mg/kg); for Vd: read-out: Vdss
Procedure: The test compound was mixed with 10% dimethyl sulfoxide/50% polyethylene glycol 200/40% water, vortexed and sonicated to prepare a nearly clear solution of 0.08 mg/mL, which was filtered with a microporous membrane for use. Balb/c male mice of 18 to 20 grams were selected, and the candidate compound solution was administered intravenously at a dose of 0.4 mg/kg. The test compound was mixed with 10% dimethyl sulfoxide/50% polyethylene glycol 200/40% water, vortexed and sonicated to prepare a nearly clear solution of 0.2 mg/mL, which was filtered with a microporous membrane for use. Balb/c male mice of 18 to 20 grams were selected, and the candidate compound solution was orally administered at a dose of 2 mg/kg. Whole blood was collected for a certain period of time, and plasma was prepared, then drug concentration was analyzed by LC-MS/MS method, and pharmacokinetic parameters were calculated by Phoenix WinNonlin software (Pharsight, USA).
IV: intravenous administration; PO: oral administration; C0: instantaneous required concentration after intravenous injection; Cmax: maximum blood drug concentration after administration; Tmax: time required to reach the peak drug concentration after administration; T1/2: time required for the blood drug concentration to decrease by half; Vdss: apparent volume of distribution, refers to the proportional constant of the drug dose in vivo and the blood drug concentration when the drug reaches a dynamic equilibrium in vivo. Cl: clearance rate, refers to the apparent volume of distribution of the drug cleared in vivo per unit time; Tlast: time at the last detection point; AUC0-last: area under the drug-time curve, refers to the area surrounded by the blood drug concentration curve to the time axis; F: a measure of the speed and degree of drug absorption into the blood circulation, which is an important index for evaluating the degree of drug absorption.

[2] = ATP: 10 μM, read-out: DNA-PK kinase inhibitory activity IC50
[3] = mouse, PO (2 mg/kg), read-out: Tmax

Structure (SMILES): Cc1cc2ncnn2cc1Nc1ncc2c(n1)C1(CC=C(F)CC1)C(=O)N2C (stereo not shown) [Compound 10]
- pIC50 (Human-derived DNA-PK; [2]): 8.15

Structure (SMILES): COC1(C)CCC2(CC1)C(=O)N(C)c1cnc(Nc3cn4ncnc4cc3C)nc12 (single isomer, unassigned) [Compound 28]
- pIC50 (Human-derived DNA-PK; [2]): 8.52

Structure (SMILES): CC(=O)N1CCC2(CC1)C(=O)N(C)c1cnc(Nc3cn4ncnc4cc3C)nc12 [Compound 6]
- pIC50 (Human-derived DNA-PK; [2]): 8.22

Structure (SMILES): CON=C1CCC2(CC1)C(=O)N(C)c1cnc(Nc3cn4ncnc4cc3C)nc12 (stereo not shown) [Compound 14]
- pIC50 (Human-derived DNA-PK; [2]): 7.96

Structure (SMILES): Cc1cc2ncnn2cc1Nc1ncc2c(n1)C1(CCN(CC(F)(F)F)CC1)C(=O)N2C [Compound 8]
- pIC50 (Human-derived DNA-PK; [2]): 8.40

Structure (SMILES): COC1CCC2(CC1)C(=O)N(C)c1cnc(Nc3cn4ncnc4cc3C)nc12 (single isomer, unassigned) [Compound 4]
- pIC50 (Human-derived DNA-PK; [2]): 8.40

Structure (SMILES): Cc1cc2ncnn2cc1Nc1ncc2c(n1)C1(CCC(C(F)(F)F)CC1)C(=O)N2C (single isomer, unassigned) [Compound 18]
- pIC50 (Human-derived DNA-PK; [2]): 8.40

Structure (SMILES): Cc1cc2ncnn2cc1Nc1ncc2c(n1)C1(CCC(F)(F)CC1)C(=O)N2C [Compound 9]
- Tlast ([1]; IV (0.4 mg/kg)): 2 h
- F [1]: 74.5%
- Tlast ([1]; PO (2 mg/kg)): 4 h
- AUC(0-t) ([1]; mouse, IV (0.4 mg/kg)): 0.311 µM·h
- C0 ([1]; mouse, IV (0.4 mg/kg)): 871 nM
- clearance ([1]; mouse, IV (0.4 mg/kg)): 53.4 mL/min/kg
- half-life ([1]; mouse, IV (0.4 mg/kg)): 14.5 min
- Vd ([1]; mouse, IV (0.4 mg/kg)): 1.07 L/kg
- AUC(0-t) ([1]; mouse, PO (2 mg/kg)): 1.16 µM·h
- Cmax ([1]; mouse, PO (2 mg/kg)): 1080 nM
- half-life ([1]; mouse, PO (2 mg/kg)): 28.7 min
- Tmax [1, 3]: 30 min
- pIC50 (Human-derived DNA-PK; [2]): 8.52

Structure (SMILES): COC1(C)CCC2(CC1)C(=O)N(C)c1cnc(Nc3cn4ncnc4cc3C)nc12 (single isomer, unassigned) [Compound 27]
- pIC50 (Human-derived DNA-PK; [2]): 8.00

Structure (SMILES): Cc1cc2ncnn2cc1Nc1ncc2c(n1)C1(CCC(C)(C)CC1)C(=O)N2C [Compound 12]
- AUC0-last ([1]; IV (0.4 mg/kg)): 0.358 µM·h
- T1/2 ([1]; IV (0.4 mg/kg)): 12.2 min
- Tlast ([1]; IV (0.4 mg/kg)): 1 h
- F [1]: 114%
- AUC0-last ([1]; PO (2 mg/kg)): 2.036 µM·h
- Cmax ([1]; PO (2 mg/kg)): 1860 nM
- T1/2 ([1]; PO (2 mg/kg)): 29.5 min
- Tlast ([1]; PO (2 mg/kg)): 4 h
- Tmax ([1]; PO (2 mg/kg)): 30 min
- C0 ([1]; mouse, IV (0.4 mg/kg)): 1280 nM
- clearance ([1]; mouse, IV (0.4 mg/kg)): 45.8 mL/min/kg
- Vd ([1]; mouse, IV (0.4 mg/kg)): 0.794 L/kg
- pIC50 (Human-derived DNA-PK; [2]): 9.00

Structure (SMILES): Cc1cc2ncnn2cc1Nc1ncc2c(n1)C1(CCS(=O)(=O)CC1)C(=O)N2C [Compound 24]
- pIC50 (Human-derived DNA-PK; [2]): 7.08

Structure (SMILES): Cc1cc2ncnn2cc1Nc1ncc2c(n1)C1(CCC(C(F)(F)F)CC1)C(=O)N2C (single isomer, unassigned) [Compound 19]
- pIC50 (Human-derived DNA-PK; [2]): 8.15

Structure (SMILES): COC1CCC2(CC1)C(=O)N(C)c1cnc(Nc3cn4ncnc4cc3C)nc12 (single isomer, unassigned) [Compound 3]
- pIC50 (Human-derived DNA-PK; [2]): 8.00

Structure (SMILES): Cc1cc2ncnn2cc1Nc1ncc2c(n1)C1(CCC3(CC3)CC1)C(=O)N2C [Compound 15]
- AUC0-last ([1]; IV (0.4 mg/kg)): 0.454 µM·h
- T1/2 ([1]; IV (0.4 mg/kg)): 15.2 min
- Tlast ([1]; IV (0.4 mg/kg)): 2 h
- F [1]: 83%
- AUC0-last ([1]; PO (2 mg/kg)): 1.882 µM·h
- T1/2 ([1]; PO (2 mg/kg)): 59.8 min
- Tlast ([1]; PO (2 mg/kg)): 8 h
- Tmax ([1]; PO (2 mg/kg)): 15 min
- C0 ([1]; mouse, IV (0.4 mg/kg)): 1230 nM
- clearance ([1]; mouse, IV (0.4 mg/kg)): 37.6 mL/min/kg
- Vd ([1]; mouse, IV (0.4 mg/kg)): 0.853 L/kg
- Cmax ([1]; mouse, PO (2 mg/kg)): 1640 nM
- pIC50 (Human-derived DNA-PK; [2]): 8.40

Structure (SMILES): Cc1cc2ncnn2cc1Nc1ncc2c(n1)C1(CCC3(CCC3)CC1)C(=O)N2C [Compound 11]
- Tlast ([1]; IV (0.4 mg/kg)): 2 h
- F [1]: 73.7%
- Tlast ([1]; PO (2 mg/kg)): 4 h
- AUC(0-t) ([1]; mouse, IV (0.4 mg/kg)): 0.349 µM·h
- C0 ([1]; mouse, IV (0.4 mg/kg)): 1250 nM
- clearance ([1]; mouse, IV (0.4 mg/kg)): 47.2 mL/min/kg
- half-life ([1]; mouse, IV (0.4 mg/kg)): 14.5 min
- Vd ([1]; mouse, IV (0.4 mg/kg)): 0.855 L/kg
- AUC(0-t) ([1]; mouse, PO (2 mg/kg)): 1.29 µM·h
- Cmax ([1]; mouse, PO (2 mg/kg)): 1220 nM
- half-life ([1]; mouse, PO (2 mg/kg)): 29.6 min
- Tmax [1, 3]: 30 min
- pIC50 (Human-derived DNA-PK; [2]): 9.00

Further lines, results first:

- pIC50 (Human-derived DNA-PK; [2]): 7.96
Structure (SMILES): Cc1cc2ncnn2cc1Nc1ncc2c(n1)C1(CCC(O)CC1)C(=O)N2C (single isomer, unassigned) [Compound 22]

- pIC50 (Human-derived DNA-PK; [2]): 8.22
Structure (SMILES): Cc1cc2ncnn2cc1Nc1ncc2c(n1)C1(CCC3(CC1)COC3)C(=O)N2C [Compound 13]

- pIC50 (Human-derived DNA-PK; [2]): 8.15
Structure (SMILES): Cc1cc2ncnn2cc1Nc1ncc2c(n1)C1(CCCC1)C(=O)N2C [Compound 17]

- pIC50 (Human-derived DNA-PK; [2]): 8.22
Structure (SMILES): Cc1cc2ncnn2cc1Nc1ncc2c(n1)C1(CCCCC1)C(=O)N2C [Compound 2]

- pIC50 (Human-derived DNA-PK; [2]): 7.82
Structure (SMILES): Cc1cc2ncnn2cc1Nc1ncc2c(n1)C1(CCC(=O)CC1)C(=O)N2C [Compound 20]

- pIC50 (Human-derived DNA-PK; [2]): 7.80
Structure (SMILES): Cc1cc2ncnn2cc1Nc1ncc2c(n1)C1(CCCOCC1)C(=O)N2C (stereo not shown) [Compound 5]

- pIC50 (Human-derived DNA-PK; [2]): 7.41
Structure (SMILES): Cc1cc2ncnn2cc1Nc1ncc2c(n1)C1(CC1)C(=O)N2C [Compound 16]

- pIC50 (Human-derived DNA-PK; [2]): 7.60
Structure (SMILES): Cc1cc2ncnn2cc1Nc1ncc2c(n1)C1(CCN(C)CC1)C(=O)N2C [Compound 7]

- pIC50 (Human-derived DNA-PK; DNA-PK kinase inhibitory activity IC50, ATP: 10 μM): 7.41
Structure (SMILES): Cc1cc2ncnn2cc1Nc1ncc2c(n1)C1(CCOCC1)C(=O)N2C [Compound 1]

- pIC50 (Human-derived DNA-PK; [2]): 8.10
Structure (SMILES): Cc1cc2ncnn2cc1Nc1ncc2c(n1)C1(CCSCC1)C(=O)N2C [Compound 23]
